# Laboratory results published in patent US20260216105A1, “CAPSAICIN EMULSION COMPOSITION, PREPARATION METHOD THEREFOR, AND USE THEREOF” (priority 2022, published 2026).
# Tests used:
# Assay type in all cases: physicochemical
# [1] = Physical phenomena of active ingredient / water-soluble solvent / water ternary mixtures; details: for formation of a liquid-liquid phase separation system with ethanol and water: bupivacaine:EtOH 1:2, ropivacaine:EtOH 1:10; for mass ratio of water:EtOH (x:1) forming a liquid-liquid phase separation state: both at 0 h and 24 h after standing
# Experimental: (§1) A stock solution was prepared with a mass ratio of CAP:EtOH=1:5. Then, 0.5 g samples of the stock solution were taken and respectively added into PE tubes, and different amounts of water (based on mass ratio of water to CAP) were added according to Table 6. […]
# According to the protocols in Examples 4.1-4.3, the physical states of mixtures containing CAP and EtOH (at mass ratios of 1:1, 1:5, and 1:10) and different proportions of water (based on mass ratio of water to CAP) were studied at 0 h and 24 h after standing. […]
# as §1, with “bupivacaine:EtOH=1:2.” for “CAP:EtOH=1:5.”, “on” for “on mass”, “bupivacaine)” for “CAP)”, “14. The ternary mixtures were shaken and observed at 0 h and 24 h after standing.” for “6.”
# physchem = details: for solubility at 24 h: 25 °C, thermodynamic from solid
# Experimental: About 3 g of each solvent was weighed according to Table 3, and an excess amount of capsaicin was added. The mixture was placed into a constant-temperature oscillator for oscillation for 24 h (25° C., 200 rpm), and then centrifuged at 10000 rpm for 30 min. The supernatant was taken to measure the capsaicin content. The solubility of CAP in different solvents (different pH buffers, commonly used oil phases, and water-soluble organic solvents) was measured, with the results shown in Table 3: […]
# [2] = Physical phenomena of active ingredient / water-soluble solvent / water ternary mixtures
smiles,measurement,setting,value
CCCCN1CCCCC1C(=O)Nc1c(C)cccc1C (stereo not shown) [bupivacaine],formation of a liquid-liquid phase separation system with ethanol and water,[1],failed to form a liquid-liquid phase separation system
CCCN1CCCC[C@H]1C(=O)Nc1c(C)cccc1C [ropivacaine],formation of a liquid-liquid phase separation system with ethanol and water,[1],failed to form a liquid-liquid phase separation system
"COc1cc(CNC(=O)CCCC/C=C/C(C)C)ccc1O [CAP, capsaicin]",solubility at 24 h,"physchem; oil or lipid, Castor oil, shaken at 25° C. for 24 h",36000 µg/mL
same,solubility at 24 h,"physchem; oil or lipid, GDO, shaken at 25° C. for 24 h",45000 µg/mL
same,solubility at 24 h,"physchem; oil or lipid, MCT, shaken at 25° C. for 24 h",14000 µg/mL
same,solubility at 24 h,"physchem; organic solvent or mixture, DGME, shaken at 25° C. for 24 h",502000 µg/mL
same,solubility at 24 h,"physchem; organic solvent or mixture, DMI, shaken at 25° C. for 24 h",> 500000 µg/mL
same,solubility at 24 h,"physchem; organic solvent or mixture, Ethanol, shaken at 25° C. for 24 h",> 500000 µg/mL
same,solubility at 24 h,"physchem; organic solvent or mixture, Isopropanol, shaken at 25° C. for 24 h",> 500000 µg/mL
same,solubility at 24 h,"physchem; organic solvent or mixture, PEG200, shaken at 25° C. for 24 h",367000 µg/mL
same,solubility at 24 h,"physchem; organic solvent or mixture, Propylene glycol, shaken at 25° C. for 24 h",290000 µg/mL
same,solubility at 24 h,"physchem; organic solvent or mixture, in some water-soluble organic solvents",> 250000 µg/mL
same,solubility at 24 h,"physchem; pH 1, simulated gastric fluid, pH 1.0 hydrochloric acid medium, shaken at 25° C. for 24 h",45 µg/mL
same,solubility at 24 h,"physchem; pH 2, simulated gastric fluid, pH 2.0 hydrochloric acid medium, shaken at 25° C. for 24 h",52 µg/mL
same,solubility at 24 h,"physchem; pH 3, aqueous buffer, pH 3.0 phosphate medium, shaken at 25° C. for 24 h",44 µg/mL
same,solubility at 24 h,"physchem; pH 4, aqueous buffer, pH 4.0 acetate medium, shaken at 25° C. for 24 h",53 µg/mL
same,solubility at 24 h,"physchem; pH 5, aqueous buffer, pH 5.0 acetate medium, shaken at 25° C. for 24 h",52 µg/mL
same,solubility at 24 h,"physchem; pH 6, aqueous buffer, pH 6.0 phosphate medium, shaken at 25° C. for 24 h",46 µg/mL
same,solubility at 24 h,"physchem; pH 7, aqueous buffer, pH 7.0 phosphate medium, shaken at 25° C. for 24 h",45 µg/mL
same,solubility at 24 h,"physchem; pH 8, aqueous buffer, pH 8.0 phosphate medium, shaken at 25° C. for 24 h",42 µg/mL
same,solubility at 24 h,"physchem; pH 9, aqueous buffer, pH 9.0 carbonate medium, shaken at 25° C. for 24 h",53 µg/mL
same,solubility at 24 h,"physchem; pH 10, aqueous buffer, pH 10.0 carbonate medium, shaken at 25° C. for 24 h",102 µg/mL
same,Solubility,"physchem; Corn oil, shaken at 25° C. for 24 h",5000 µg/mL
same,Solubility,"physchem; Peanut oil, shaken at 25° C. for 24 h",5000 µg/mL
same,Solubility,"physchem; Rapeseed oil, shaken at 25° C. for 24 h",5000 µg/mL
same,mass ratio of water:EtOH (x:1) forming a liquid-liquid phase separation state,[1]; CAP:EtOH 1:1,0.65-2
same,mass ratio of water:EtOH (x:1) forming a liquid-liquid phase separation state,[1]; CAP:EtOH 1:5,1-2.2
same,mass ratio of water:EtOH (x:1) forming a liquid-liquid phase separation state,[1]; CAP:EtOH 1:10,1.4-2.5
same,formation of a liquid-liquid phase separation system with PEG200 and water,[1]; CAP:PEG200 1:3,could not form a liquid-liquid phase separation system
same,formation of a liquid-liquid phase separation system with PEG200 and water,[1]; CAP:PEG200 1:5 (increased mass of PEG200),failed to enable the formation of a liquid-liquid phase separation system
same,formation of a liquid-liquid phase separation system with propylene glycol and water,[1]; CAP:propylene glycol 1:5,failed to form a liquid-liquid phase separation system
same,mass ratio of water:DGME (x:1) forming a liquid-liquid phase separation system,[2]; CAP:DGME 1:1,1-2
same,mass ratio of water:DMI (x:1) forming a liquid-liquid phase separation system,[2]; CAP:DMI 1:3,0.3-2
same,mass ratio of water:IPA (x:1) forming a liquid-liquid phase separation system,[2]; CAP:IPA 1:1,0.5-2
